Data published in patent publication US12023335B2, “Method for treating pancreatic cancer” (PTC THERAPEUTICS, INC., priority 2018, dated 2024).
Entries after “also recorded” stand apart in the source; their conditions may differ.

Legend:
tubulin = assay: Analysis of free tubulin content in Aspc1 cells (fractionation, western blot); format: cell-based, human; settings: 3.0 μM, 2 hours, relative to vehicle, COL and TAX (FIGS. 11a, 11b)
Procedure: (§1) Western blotting was carried out on lysates isolated from treated cells. Cells were lysed using RIPA buffer (50 mM Tris, pH 7.4, 150 mM NaCl, 1% Nonidet P-40, 0.1% SDS, 0.5% deoxycholate) supplemented with cOmplete™ EDTA-free Protease Inhibitor Cocktail (Sigma, 11836170001) and Halt™ Phosphatase Inhibitor Cocktail (ThermoFisher, 78420). Lysates were quantified using the Pierce BCA Protein Assay Kit (ThermoFisher, 23227), diluted in SDS sample buffer, resolved by SDS-PAGE (15-30 μg/sample), and transferred onto PVDF membranes. Membranes were blocked with 5% w/v nonfat dry milk in TBS-T (0.1% Tween20) and primary antibodies were incubated overnight at 4° C., diluted in 5% BSA in TBS-T at the indicated concentrations. HRP-conjugated secondary antibodies were incubated in blocking buffer for 1 hour at room temperature before detection using Super Digital-ECL™ substrate solution (Kindle Biosciences, R1002). (FIG. 5b, FIG. 10a and FIG. 11b)
Free heterodimer tubulin was separated from tubulin incorporated into microtubules according to manufacturer's recommendations using the Microtubule/Tubulin In Vivo Assay Biochem Kit (Cytoskeleton, #BK038). Cells were seeded in 12-well plates such that ˜16 hours later they would be approximately 50-60% confluent. […]

[1] = tested on: J1002VEH and J1002TAM cells; assay: Cell cycle analysis of J1002VEH and J1002TAM cells; format: cell-based, mouse
Procedure: Cells were seeded into 12-well or 6-well plates such that 16 hours later they would be approximately 30-50% confluent. Cells were then treated for 24 hours with either DMSO (<0.003%), Compound 1 (100 nM or 1 μM), or 100 nM nocodazole (Sigma, M1404). Following treatment, cells were harvested and fixed in ice-cold 70% ethanol for a minimum of one hour. Following fixation, cells were re-suspended in PBS+2% FBS+3 μM DAPI (BioLegend, 422801) or 0.25 μg 7-AAD (BD Pharmingen, 559925), and analyzed on a MACSQuant® Analyzer 10 (Miltenyi Biotec) or BD LSR II™. For cell cycle analysis time course experiments, cells were prepared as described above, except treated for 24, 48, or 72 hours. Data was analyzed using FlowJo software. Percent populations in G2/M were identified using the univariate cell cycle platform offered by FlowJo software. Percent populations >4N were determined by gating above the 4N population of DMSO-treated cells. (FIG. 1b, FIG. 1c, FIG. 2a, FIG. 2b, FIG. 10e, and FIG. 10g)

CYCLIN B1 = assay: Western blot for CYCLIN B1 on tumors from KPC mice; format: in vivo; settings: 10 mg/kg; biopsy 48 hours before first dose vs necropsy 24 hours after third dose (FIGS. 5b, 5c)
Procedure: as §1

[2] = target: T1, tubulin from porcine brain (Sus scrofa, UniProt P02550+P02554); assay: Cell-free tubulin polymerization assay; format: biochemical; settings: 0.12, 0.37, 1.11, 3.33 and 10 μM (FIGS. 11e, 11f)
T1 construct: which uses >99% pure tubulin from porcine brain; purchased Cytoskeleton #BK011P; host or cells: porcine brain (tissue-purified)
T1 sequence (P02554 whole entry): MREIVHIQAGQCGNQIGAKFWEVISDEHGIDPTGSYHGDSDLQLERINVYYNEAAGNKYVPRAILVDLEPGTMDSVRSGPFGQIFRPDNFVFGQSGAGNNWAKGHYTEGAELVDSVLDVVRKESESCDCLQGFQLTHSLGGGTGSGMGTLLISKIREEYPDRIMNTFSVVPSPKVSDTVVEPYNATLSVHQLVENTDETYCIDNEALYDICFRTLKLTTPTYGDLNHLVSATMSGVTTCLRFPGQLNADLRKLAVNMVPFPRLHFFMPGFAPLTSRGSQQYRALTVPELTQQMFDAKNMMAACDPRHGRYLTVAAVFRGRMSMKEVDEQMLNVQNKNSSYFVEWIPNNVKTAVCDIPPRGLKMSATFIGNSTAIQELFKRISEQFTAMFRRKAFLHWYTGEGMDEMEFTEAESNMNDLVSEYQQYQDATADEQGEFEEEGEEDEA
T1 sequence (P02550 whole entry): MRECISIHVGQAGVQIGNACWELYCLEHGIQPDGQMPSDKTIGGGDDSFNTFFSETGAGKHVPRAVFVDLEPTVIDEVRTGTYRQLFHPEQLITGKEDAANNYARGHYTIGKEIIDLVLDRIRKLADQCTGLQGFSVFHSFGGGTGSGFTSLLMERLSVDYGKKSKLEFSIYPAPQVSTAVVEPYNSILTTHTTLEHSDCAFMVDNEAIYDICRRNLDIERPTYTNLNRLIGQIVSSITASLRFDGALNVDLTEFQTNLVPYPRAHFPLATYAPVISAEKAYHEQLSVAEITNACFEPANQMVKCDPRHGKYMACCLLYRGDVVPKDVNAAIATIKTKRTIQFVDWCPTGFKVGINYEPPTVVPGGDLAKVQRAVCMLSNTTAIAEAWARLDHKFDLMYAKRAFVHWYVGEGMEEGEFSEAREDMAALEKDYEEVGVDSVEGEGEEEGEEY
Procedure: Assays were carried out according to manufacturer's recommendations using the fluorescence-based tubulin polymerization assay kit from Cytoskeleton (#BK011P) which uses >99% pure tubulin from porcine brain. All drugs used were dissolved in DMSO and then diluted in ultrapure water to 10× final concentration. Final percentage of DMSO was kept constant for all samples. Tubulin was prepared by resuspension at 2 mg/mL in 80 mM PIPES pH 6.9, 2.0 mM MgCl2, 0.5 mM EGTA, 1.0 mM GTP, 15% glycerol, and 10 μM fluorescent reporter. All drug samples (10×) were added to a pre-warmed half-area 96-well plate (Corning Costar, 3686) in duplicate, and then warmed to 37° C. for 1 min. Tubulin (50 μL/well) was then added to all wells, and the plate was placed in a plate reader pre-warmed to 37° C. The plate was mixed by medium, orbital shaking for 5 seconds, and fluorescence measured every 60 seconds for 90 minutes (Ex: 340-360+/−20 nm, Em: 410-460 nm+/−20 nm) in a BioTek Synergy 2 plate reader. Polymerization rates (fluorescence units/minute) were determined by measuring the maximal slope (by linear regression) of the linear portion of the growth phase of the polymerization curve. (FIG. 11e and FIG. 11f)

## Cc1nc2ccc(F)cc2n1-c1nc(N)c(F)c(Nc2ccc(C(F)(F)F)cc2)n1 [Compound 1, 5-fluoro-2-(6-fluoro-2-methyl-1H-benzo[d]imidazol-1-yl)-N4-[4-(trifluoromethyl)phenyl]pyrimidine-4,6-diamine]
tubulin
  free tubulin vs microtubules in cell lysate fractions: significant fold-change increase in prevention of tubulin formation
[1]; 1.0 μM, 24 hours (FIGS. 10d-10g)
  cell cycle distribution / polyploidy of J1002VEH and J1002TAM cells: dose and time-dependent increase in the amount of BMI-1 dependent cells affected by polyploidy
[1]; data taken as a whole
  BMI-1 hyperphosphorylation (conclusion from FIG. 10 data as a whole): induces BMI-1 hyperphosphorylation indirectly as a result of mitotic arrest
CYCLIN B1
  CYCLIN B1 normalized to VINCULIN in tumors: consistent reduction in Cyclin B1 relative to Vinculin
[2]
  tubulin polymerization (fluorescence units/minute): function as a microtubule polymerization inhibitor; also recorded: dose-dependent decrease in tubulin polymerization; also recorded: directly inhibits microtubule formation
